Test results as given in patent US10336702B2, “Pharmaceutically active compounds” (BERGENBIO ASA, priority 2015, dated 2019).

Key:
[1] = molecular target: T1, p-Akt3 in WM115 cells (Homo sapiens, UniProt Q9Y243); test: Phospho-Akt cellular SureFire assay, p-Akt3 in WM115 cells; assay type: cell-based; conditions: insulin stimulated, read-out: Biological Assay 2 IC50 (nM) Akt3 WM115
T1 construct: SureFire assays to detect cellular p-Akt1, p-Akt2 and p-Akt3 levels in WM115 cells (Akt2/3) and LNCaP cells (Akt1); endogenous in cells; host or cells: WM115 (ECACC 91061232), insulin-stimulated
T1 sequence (Q9Y243 whole entry): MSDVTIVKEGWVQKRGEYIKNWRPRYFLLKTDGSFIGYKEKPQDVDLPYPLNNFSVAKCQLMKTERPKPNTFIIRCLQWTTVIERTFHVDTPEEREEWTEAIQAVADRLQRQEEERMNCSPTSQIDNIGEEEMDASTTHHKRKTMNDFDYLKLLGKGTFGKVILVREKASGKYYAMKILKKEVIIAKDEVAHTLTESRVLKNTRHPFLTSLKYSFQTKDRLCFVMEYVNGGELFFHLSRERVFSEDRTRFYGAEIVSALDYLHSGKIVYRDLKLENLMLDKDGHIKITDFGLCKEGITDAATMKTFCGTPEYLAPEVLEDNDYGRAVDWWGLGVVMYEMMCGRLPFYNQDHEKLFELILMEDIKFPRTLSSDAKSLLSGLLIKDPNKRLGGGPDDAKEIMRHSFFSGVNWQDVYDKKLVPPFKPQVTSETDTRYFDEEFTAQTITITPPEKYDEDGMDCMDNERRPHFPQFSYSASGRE
In short: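 WM115 cells were serum-reduced to 0.1% FBS, stimulated with 100 nM insulin for 10 min, then exposed to compound (0.3% DMSO) for 15 min at 37 °C. Lysates were assayed for Thr308-phosphorylated Akt3 by AlphaScreen SureFire using an isoform-specific total Akt3 capture antibody. IC50 was derived from a 4-parameter fit.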

[2] = molecular target: T2, Akt1 (Homo sapiens, UniProt P31749); test: Akt activation assay (PDK1-mediated activation, LANCE Ultra crosstide TR-FRET), Akt1; assay type: biochemical; conditions: read-out: Biological Assay 1 IC50 (nM) Akt1
T2 construct: unspecified tag, removed (detagged) (cleaved yes); purchased SignalChem and Proteros (Akt1); Merck Millipore (PDK1) 14-452 (PDK1); none given for Akt1
T2 sequence (P31749 whole entry): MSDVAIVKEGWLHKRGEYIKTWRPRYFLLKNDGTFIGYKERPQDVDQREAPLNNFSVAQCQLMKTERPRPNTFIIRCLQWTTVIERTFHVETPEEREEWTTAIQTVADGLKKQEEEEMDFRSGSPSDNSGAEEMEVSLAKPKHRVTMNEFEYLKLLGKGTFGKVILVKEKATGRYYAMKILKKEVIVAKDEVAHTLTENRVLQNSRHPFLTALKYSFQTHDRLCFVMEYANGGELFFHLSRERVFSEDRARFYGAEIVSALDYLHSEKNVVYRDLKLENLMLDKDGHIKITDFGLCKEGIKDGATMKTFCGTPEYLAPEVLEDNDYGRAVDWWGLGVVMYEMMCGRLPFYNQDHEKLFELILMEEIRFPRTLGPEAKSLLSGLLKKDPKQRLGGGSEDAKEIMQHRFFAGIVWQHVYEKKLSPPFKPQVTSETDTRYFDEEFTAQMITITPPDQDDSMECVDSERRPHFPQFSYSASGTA
In short: (§1)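 Unactivated Akt (5 nM Akt1, 15 or 5 nM Akt2, 3 or 5 nM Akt3, by supplier) preincubated with compound, then activated by 5 nM PDK1 on DOPS/DOPC/PtdIns(3,4,5)P3 vesicles with 100 μM ATP and 100 nM Ulight-crosstide, pH 7.5, 30 min. Eu-anti-phospho-crosstide TR-FRET (665/615 nm); IC50 by 4-parameter fit.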

[3] = molecular target: T3, Akt2 (Homo sapiens, UniProt P31751); test: Akt activation assay (PDK1-mediated activation, LANCE Ultra crosstide TR-FRET), Akt2; assay type: biochemical; conditions: read-out: Biological Assay 1 IC50 (nM) Akt2
T3 construct: unspecified tag, removed (detagged) (cleaved yes); purchased SignalChem and Proteros (Akt2); Merck Millipore (PDK1) 14-452 (PDK1); none given for Akt2
T3 sequence (P31751 whole entry): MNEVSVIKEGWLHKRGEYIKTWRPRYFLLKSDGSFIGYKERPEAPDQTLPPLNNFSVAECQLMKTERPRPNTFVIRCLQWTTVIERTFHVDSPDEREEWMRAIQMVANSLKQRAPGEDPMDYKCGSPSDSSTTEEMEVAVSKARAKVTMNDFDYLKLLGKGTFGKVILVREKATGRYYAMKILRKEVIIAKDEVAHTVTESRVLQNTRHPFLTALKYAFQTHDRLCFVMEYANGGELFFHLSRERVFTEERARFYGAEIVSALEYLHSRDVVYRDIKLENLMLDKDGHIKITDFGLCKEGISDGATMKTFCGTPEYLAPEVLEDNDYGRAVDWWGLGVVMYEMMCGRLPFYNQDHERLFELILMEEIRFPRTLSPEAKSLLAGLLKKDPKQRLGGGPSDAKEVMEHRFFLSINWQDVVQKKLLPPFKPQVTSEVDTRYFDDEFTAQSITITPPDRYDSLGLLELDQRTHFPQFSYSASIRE
In short: as §1

[4] = molecular target: T4, Akt3 (Homo sapiens, UniProt Q9Y243); test: Akt activation assay (PDK1-mediated activation, LANCE Ultra crosstide TR-FRET), Akt3; assay type: biochemical; conditions: read-out: Biological Assay 1 IC50 (nM) Akt3
T4 construct: unspecified tag, removed (detagged) (cleaved yes); purchased SignalChem and Proteros (Akt3); Merck Millipore (PDK1) 14-452 (PDK1); none given for Akt3
T4 sequence (Q9Y243 whole entry): as the sequence (Q9Y243 whole entry) above
In short: as §1

[5] = molecular target: T5, p-Akt1 in LNCaP cells (Homo sapiens, UniProt P31749); test: Phospho-Akt cellular SureFire assay, p-Akt1 in LNCaP cells; assay type: cell-based; conditions: read-out: Biological Assay 2 IC50 (nM) Akt1 LNCaP
T5 construct: SureFire assays to detect cellular p-Akt1, p-Akt2 and p-Akt3 levels in WM115 cells (Akt2/3) and LNCaP cells (Akt1); endogenous in cells; host or cells: LNCaP (ECACC 89110211)
T5 sequence (P31749 whole entry): as the sequence (P31749 whole entry) above
In short: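 LNCaP cells, 5×10^4/well, seeded overnight, switched to 0.1% FBS medium without insulin stimulation, then compound for 15 min at 37 °C (0.3% DMSO). Lysate p-Akt1 (pThr308) by AlphaScreen SureFire, two 2 h incubations at room temperature; IC50 by 4-parameter fit.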

[6] = molecular target: T6, p-Akt2 in WM115 cells (Homo sapiens, UniProt P31751); test: Phospho-Akt cellular SureFire assay, p-Akt2 in WM115 cells; assay type: cell-based; conditions: insulin stimulated, read-out: Biological Assay 2 IC50 (nM) Akt2 WM115
T6 construct: SureFire assays to detect cellular p-Akt1, p-Akt2 and p-Akt3 levels in WM115 cells (Akt2/3) and LNCaP cells (Akt1); endogenous in cells; host or cells: WM115 (ECACC 91061232), insulin-stimulated
T6 sequence (P31751 whole entry): as the sequence (P31751 whole entry) above
In short: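 WM115 cells in 0.1% FBS medium stimulated 10 min with 100 nM insulin, then exposed to compound for 15 min at 37° C (0.3% DMSO final). Lysates assayed by AlphaScreen with anti-(pThr308)Akt and isoform-specific total Akt2 antibodies; IC50 from 4-parameter fit.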

Row | SMILES | IC50 [1] | IC50 [2] | IC50 [3] | IC50 [4] | IC50 [5] | IC50 [6]
1 | CC(=O)NC1CCC(CC(=O)Nc2cnc(-c3ccc([C@]4(N)C[C@](C)(O)C4)cc3)c(-c3ccccc3)c2)CC1 (stereo partly drawn) [Example 2, 2-(trans-4-acetamidocyclohexyl)-N-(6-(4-(trans-1-amino-3-hydroxy-3-methylcyclobutyl)phenyl)-5-phenylpyridin-3-yl)acetamide] | 150 nM | 980 nM | 94 nM | 20 nM | 8700 nM | 4400 nM
2 | CC(=O)N(C)[C@H]1CC[C@H](CC(=O)Nc2cc(-c3ccsc3)c(-c3ccc([C@]4(N)C[C@H](F)C4)cc3)nn2)CC1 [Example 75, N-(6-(4-(trans-1-amino-3-fluorocyclobutyl)phenyl)-5-(thiophen-3-yl)pyridazin-3-yl)-2-(trans-4-(N-methylacetamido)cyclohexyl)acetamide] | 46 nM | > 16000 nM | 580 nM | 18 nM | > 30000 nM | 3200 nM
3 | CC(=O)N(C)[C@H]1CC[C@H](CC(=O)Nc2cnc(-c3ccc(C(C)(C)N)nc3)c(-c3ccccc3)c2)CC1 [Example 43, N-(6′-(2-aminopropan-2-yl)-3-phenyl-[2,3′-bipyridin]-5-yl)-2-(trans-4-(N-methylacetamido)cyclohexyl)acetamide] | 1700 nM | > 30000 nM | > 30000 nM | 1100 nM | > 30000 nM | > 30000 nM
4 | CC(=O)N(CC(F)(F)F)[C@H]1CC[C@H](CC(=O)Nc2cc(-c3ccccc3)c(-c3ccc([C@]4(N)C[C@](C)(O)C4)cc3)cn2)CC1 [Example 117, N-(5-(4-(trans-1-amino-3-hydroxy-3-methylcyclobutyl)phenyl)-4-phenylpyridin-2-yl)-2-(trans-4-(N-(2,2,2-trifluoroethyl)acetamido)cyclohexyl)acetamide] | 33 nM | > 24000 nM | 290 nM | 42 nM | 12000 nM | 980 nM
5 | CN(C1CCC(CC(=O)Nc2cnc(-c3ccc(C(C)(C)N)cc3)c(-c3ccccc3)c2)CC1)C1(C)COC1 (stereo not drawn) [Example 35, N-(6-(4-(2-aminopropan-2-yl)phenyl)-5-phenylpyridin-3-yl)-2-(4-(methyl(3-methyloxetan-3-yl)amino)cyclohexyl)acetamide] | 1500 nM | > 30000 nM | 25000 nM | 17000 nM | > 30000 nM | 17000 nM
6 | NC1(c2ccc(-c3ncc(NC(=O)C[C@H]4CC[C@H](N5CCOCC5)CC4)cc3-c3ccsc3)cc2)CCC1 [Example 38, N-(6-(4-(1-aminocyclobutyl)phenyl)-5-(thiophen-3-yl)pyridin-3-yl)-2-(trans-4-morpholinocyclohexyl)acetamide] | 92 nM | 9000 nM | 1900 nM | 560 nM | 7000 nM | 3000 nM
7 | CC(C)(N)c1ccc(-c2ncc(NC(=O)C[C@H]3CC[C@H](NC(=O)CC4CC4)CC3)cc2-c2ccccc2)cc1 [Example 29, N-(6-(4-(2-aminopropan-2-yl)phenyl)-5-phenylpyridin-3-yl)-2-(trans-4-(2-cyclopropylacetamido)cyclohexyl)acetamide] | 170 nM | > 33000 nM | 2200 nM | 53 nM | > 13000 nM | 8400 nM

The next lines start with the values.

Row | IC50 [1] | IC50 [2] | IC50 [3] | IC50 [4] | IC50 [5] | IC50 [6] | SMILES
8 | 270 nM | > 30000 nM | 3400 nM | 74 nM | > 20000 nM | 8800 nM | CC(C)C(=O)N(C)[C@H]1CC[C@H](CC(=O)Nc2cc(-c3ccccc3)c(-c3ccc(C(C)(C)N)cc3)nn2)CC1 [Example A85, N-(trans-4-(2-((6-(4-(2-aminopropan-2-yl)phenyl)-5-phenylpyridazin-3-yl)amino)-2-oxoethyl)cyclohexyl)-N-methylisobutyramide]
9 | 390 nM | > 30000 nM | 3300 nM | 740 nM | > 30000 nM | 7000 nM | CN([C@H]1CC[C@H](CC(=O)Nc2cnc(-c3ccc(C(C)(C)N)cc3)c(-c3ccccc3F)c2)CC1)S(C)(=O)=O [Example A26, N-(6-(4-(2-aminopropan-2-yl)phenyl)-5-(2-fluorophenyl)pyridin-3-yl)-2-(trans-4-(N-methylmethylsulfonamido)cyclo-hexyl)acetamide]
10 | 590 nM | > 30000 nM | 16000 nM | 4500 nM | > 20000 nM | 24000 nM | CC(=O)N[C@H]1CC[C@H](CC(=O)Nc2cnc(-c3ccc([C@H](N)C(F)F)cc3)c(-c3ccccc3)c2)CC1 [Example A12, 2-(trans-4-acetamidocyclohexyl)-N-(6-(4-((S)-1-amino-2,2-difluoroethyl)phenyl)-5-phenylpyridin-3-yl)acetamide]
11 | 130 nM | 4000 nM | 420 nM | 110 nM | > 16000 nM | 2800 nM | COC(=O)N(C)[C@H]1CC[C@H](CC(=O)Nc2cnc(-c3ccc(C4(N)CCC4)cc3)c(-c3ccccc3)c2)CC1 [Example A1, Methyl (trans-4-(2-((6-(4-(1-aminocyclobutyl)phenyl)-5-phenylpyridin-3-yl)amino)-2-oxoethyl)cyclohexyl)(methyl)carbamate]
12 | 1400 nM | > 30000 nM | > 30000 nM | 520 nM | > 30000 nM | > 30000 nM | COC(=O)N(C)[C@H]1CC[C@H](CC(=O)Nc2cc(-c3ccsc3)c(-c3ccc(C4(N)CC4)c(F)c3)nn2)CC1 [Example A100, Methyl (trans-4-(2-((6-(4-(1-aminocyclopropyl)-3-fluorophenyl)-5-(thiophen-3-yl)pyridazin-3-yl)amino)-2-oxoethyl)cyclohexyl)(methyl)carbamate]
13 | 310 nM | > 16000 nM | 380 nM | 16 nM | > 30000 nM | 5000 nM | COC(=O)N(C)[C@H]1CC[C@H](CC(=O)Nc2cc(-c3ccccc3)c(-c3ccc(C4(N)CCC4)cc3)nn2)CC1 [Example A55, Methyl (trans-4-(2-((6-(4-(1-aminocyclobutyl)phenyl)-5-phenylpyridazin-3-yl)amino)-2-oxoethyl)cyclohexyl)(methyl)carbamate]
14 | 150 nM | > 30000 nM | 340 nM | 42 nM | > 30000 nM | 2000 nM | NC1(c2ccc(-c3cnc(NC(=O)C[C@H]4CC[C@H](N5CCOC5=O)CC4)cc3-c3ccccc3)cc2)CC1 [Example A51, N-(5-(4-(1-aminocyclopropyl)phenyl)-4-phenylpyridin-2-yl)-2-(trans-4-(2-oxooxazolidin-3-yl)cyclohexyl)acetamide]
15 | 80 nM | > 30000 nM | 1800 nM | 170 nM | > 30000 nM | 3200 nM | NC1(c2ccc(-c3ncc(NC(=O)C[C@H]4CC[C@H](N5CCCCC5=O)CC4)cc3-c3ccsc3)cc2)CCC1 [Example A14, N-(6-(4-(1-aminocyclobutyl)phenyl)-5-(thiophen-3-yl)pyridin-3-yl)-2-(trans-4-(2-oxopiperidin-1-yl)cyclohexyl)acetamide]
16 | 1600 nM | > 30000 nM | > 27000 nM | 1400 nM | > 30000 nM | > 30000 nM | COC(=O)N(C)[C@H]1CC[C@H](CC(=O)Nc2cc(-c3ccccn3)c(-c3ccc(C4(N)CC4)cc3)cn2)CC1 [Example A88, Methyl ((1r,4r)-4-(2-((5′-(4-(1-aminocyclopropyl)phenyl)-[2,4′-bipyridin]-2′-yl)amino)-2-oxoethyl)cyclohexyl)(methyl)carbamate]
